pIC50: −log10 of the molar value.

For the first experiment, the target named is KRAS G12C (Homo sapiens (Human), UniProt P01116, C118A/G12C). The experiment in a line: 2 h coupled exchange assay. Type of experiment: biochemical. The conditions noted are these: Avg 2 h Coupled exchange IC50, 2 h compound pre-incubation. On the procedure:
The term “2 h coupled exchange assay” or “20 h coupled exchange assay” as used herein refers to the assay described in the Section entitled “BIOLOGICAL EVALUATION.”
The pIC50 is −log10 of the IC50, conventionally taken in molar units. Compound `Cc1ccc2[nH]ncc2c1-c1c(Cl)c(N2CCC3(CN(C(=O)/C=C/CN(C)C)C3)C2)cc2c1OCCC2` [Example 32-1, (2E)-1-(6-(7-chloro-8-(5-methyl-1H-indazol-4-yl)-3,4-dihydro-2H-chromen-6-yl)-2,6-diazaspiro[3.4]octan-2-yl)-4-(dimethylamino)-2-buten-1-one] gave a pIC50 of 6.22. Still for that read-out and setting: for `C=CC(=O)N1CC2(CCN(c3nc4cc(-c5ccn[nH]5)ccc4c(-c4ccccc4Cl)c3C#N)C2)C1` [Example 17-8, 4-(2-chlorophenyl)-2-(2-(2-propenoyl)-2,6-diazaspiro[3.4]octan-6-yl)-7-(1H-pyrazol-3-yl)-3-quinolinecarbonitrile] the value was 6.24; for `C=CC(=O)N1CC2(CCN(c3nc4c(c(-c5[nH]c(=O)cc6ccccc56)c3C#N)CCC(C)(C)C4)C2)C1` [Example 33-2, 7,7-dimethyl-4-(3-oxo-2,3-dihydro-1-isoquinolinyl)-2-(2-(2-propenoyl)-2,6-diazaspiro[3.4]octan-6-yl)-5,6,7,8-tetrahydro-3-quinolinecarbonitrile], 6.18. Same read-out and setting: for `C=CC(=O)N1CC2(CCN(c3nc4cc(-c5ccnn5C)ccc4c(-c4c(O)cccc4F)c3C)C2)C1` [Example 16-10, 1-(6-(4-(2-fluoro-6-hydroxyphenyl)-3-methyl-7-(1-methyl-1H-pyrazol-5-yl)-2-quinolinyl)-2,6-diazaspiro[3,4]octan-2-yl)-2-propen-1-one] the value was 6.59; for `C=CC(=O)N1CC2(CCN(c3nc4c(c(-c5c(C)c(Cl)cc6cnn(C)c56)c3F)COC(C)(C)C4)C2)C1` (single isomer, unassigned) [Example 14-78, (M)-1-(6-(4-(5-chloro-1,6-dimethyl-1H-indazol-7-yl)-3-fluoro-7,7-dimethyl-7,8-dihydro-5H-pyrano[4,3-b]pyridin-2-yl)-2,6-diazaspiro[3.4]octan-2-yl)-2-propen-1-one], 7.64; for `C=CC(=O)N1CC2(CCN(c3nc4c(c(-c5cccc6cc[nH]c56)c3C#N)C[C@H]3C[C@@H]4C3(C)C)C2)C1` [Example 14-22, (1R,9R)-6-(1H-indol-7-yl)-10,10-dimethyl-4-(2-(2-propenoyl)-2,6-diazaspiro[3.4]octan-6-yl)-3-azatricyclo[7.1.1.0^2,7]undeca-2,4,6-triene-5-carbonitrile], 6.22. On the same count and under the same terms, for `C=CC(=O)N1CC2(CCN(c3nc4cc(-c5ccnn5C(F)F)ccc4c(-c4ccccc4Cl)c3C#N)C2)C1` [Example 17-4, 4-(2-chlorophenyl)-7-(1-(difluoromethyl)-1H-pyrazol-5-yl)-2-(2-(2-propenoyl)-2,6-diazaspiro[3.4]octan-6-yl)-3-quinolinecarbonitrile] the value was 6.28; for `C=CC(=O)N1CC2(CCN(c3nc4cc(-c5ocnc5C)ccc4c(-c4ccccc4F)c3C#N)C2)C1` [Example 17-10, 4-(2-fluorophenyl)-7-(4-methyl-1,3-oxazol-5-yl)-2-(2-(2-propenoyl)-2,6-diazaspiro[3.4]octan-6-yl)-3-quinolinecarbonitrile], 6.24.

The same experiment, now with this note: Avg 2 h Coupled exchange IC50, 2 h compound pre-incubation, SOS-mediated nucleotide exchange.
Compound `C=CC(=O)N1CC2(CCN(c3nc4c(c(-c5c(Cl)ccc6cc[nH]c56)c3C#N)COC(C)(C)C4)C2)C1` [Example 12-13, 4-(6-chloro-1H-indol-7-yl)-7,7-dimethyl-2-(2-(2-propenoyl)-2,6-diazaspiro[3.4]octan-6-yl)-7,8-dihydro-5H-pyrano[4,3-b]pyridine-3-carbonitrile] showed a pIC50 of 6.60. On the same count and under the same terms, for `C=CC(=O)N1CC2(CCN(c3nc4c(c(-c5c(C)ccc6cnn(C)c56)c3C#N)CC[C@H]3C[C@@H]43)C2)C1` (single isomer, unassigned) [Example 13-135, (6a,7a)-4-(1,6-dimethyl-1H-indazol-7-yl)-2-(2-(2-propenoyl)-2,6-diazaspiro[3.4]octan-6-yl)-6,6a,7,7a-tetrahydro-5H-cyclopropa[h]quinoline-3-carbonitrile] the value was 4.20.

`C=CC(=O)N1CC2(CCN(c3nc4c(c(-c5c(O)ccc6ccccc56)c3C#N)COC(C)(C)C4)C2)C1` [Example 13-34, 4-(2-hydroxy-1-naphthalenyl)-7,7-dimethyl-2-(2-(2-propenoyl)-2,6-diazaspiro[3.4]octan-6-yl)-7,8-dihydro-5H-pyrano[4,3-b]pyridine-3-carbonitrile]: the pIC50 is 6.02. On the same count and under the same terms, for `C=CC(=O)N1CC2(CCN(c3nc4c(c(-c5cc(O)ccc5C)c3C#N)[C@@H]3CC[C@H]4C3)C2)C1` (single isomer, unassigned) [Example 14-10] the value was 5.94. Regarding `C=CC(=O)N1CC2(CCN(c3nc4c(c(-c5ccccc5Cl)c3C#N)C[C@H]3C[C@@H]4C3(C)C)C2)C1` [Example 2-63, (1R,9R)-6-(2-chlorophenyl)-10,10-dimethyl-4-(2-(2-propenoyl)-2,6-diazaspiro[3.4]octan-6-yl)-3-azatricyclo[7.1.1.0^2,7]undeca-2,4,6-triene-5-carbonitrile], the negative logarithm of the IC50 (pIC50) is 6.10. Compound `C=CC(=O)N1CC2(CCN(c3nc4c(c(-c5c(C)c(C)cc6cnn(C)c56)c3C#N)COC(C)(C)C4)C2)C1` (single isomer, unassigned) [Example 13-91, (M)-7,7-dimethyl-2-(2-(2-propenoyl)-2,6-diazaspiro[3.4]octan-6-yl)-4-(1,5,6-trimethyl-1H-indazol-7-yl)-7,8-dihydro-5H-pyrano[4,3-b]pyridine-3-carbonitrile] gave a pIC50 of 5.03. Still for that read-out and setting: for `C=CC(=O)N1CC2(CCN(c3nc4c(c(-c5c(C)c(Cl)cc6cnn(C)c56)c3Cl)COC(C)(C)C4)C2)C1` (single isomer, unassigned) [Example 2-90, (M)-1-(6-(3-chloro-4-(5-chloro-1,6-dimethyl-1H-indazol-7-yl)-7,7-dimethyl-7,8-dihydro-5H-pyrano[4,3-b]pyridin-2-yl)-2,6-diazaspiro[3.4]octan-2-yl)-2-propen-1-one] the value was 8.30. For `C=CC(=O)N1CC2(CCN(c3nc4c(c(-c5cccc6ccc(O)cc56)c3C#N)COC(C)(C)C4)C2)C1` [Example 12-32, 4-(7-hydroxy-1-naphthalenyl)-7,7-dimethyl-2-(2-(2-propenoyl)-2,6-diazaspiro[3.4]octan-6-yl)-7,8-dihydro-5H-pyrano[4,3-b]pyridine-3-carbonitrile], the pIC50 is 6.29. The same measure, in the same setting: for `C=CC(=O)N1CC2(CCN(c3nc4c(c(-c5c(C)cccc5O)c3C#N)C[C@H]3C[C@@H]4C3)C2)C1` [Example 13-38, (1S,9S)-6-(2-hydroxy-6-methylphenyl)-4-(2-(2-propenoyl)-2,6-diazaspiro[3.4]octan-6-yl)-3-azatricyclo[7.1.1.0^2,7]undeca-2,4,6-triene-5-carbonitrile] the value was 5.85; for `C=CC(=O)N1CC2(CCN(c3nc4cc(F)ccc4c(-c4c(C)ccc5[nH]ncc45)c3C)[C@@H]2C)C1` (single isomer, unassigned) [Example 2-59], 4.83; for `C=CC(=O)N1CC2(CCN(c3nc4c(c(-c5c(C)c(Cl)cc6[nH]ncc56)c3Cl)COC(C)(C)C4)C2)C1` (single isomer, unassigned) [Example 2-108, (M)-1-(6-(3-chloro-4-(6-chloro-5-methyl-1H-indazol-4-yl)-7,7-dimethyl-7,8-dihydro-5H-pyrano[4,3-b]pyridin-2-yl)-2,6-diazaspiro[3.4]octan-2-yl)-2-propen-1-one], 4.85.

For the compound `Cc1ccc2[nH]ncc2c1-c1c(C#N)c(N2CCC3(CN(C(=O)/C=C/CO)C3)C2)nc2c1CCC(C)(C)C2` [Example 13-9, 2-(2-((2E)-4-hydroxy-2-butenoyl)-2,6-diazaspiro[3.4]octan-6-yl)-7,7-dimethyl-4-(5-methyl-1H-indazol-4-yl)-5,6,7,8-tetrahydro-3-quinolinecarbonitrile], the pIC50 is 6.49. With `CN(C)C/C=C/C(=O)N1CC2(CCN(c3nc4c(c(-c5cc(O)cc6ccccc56)c3C#N)CC[C@@H]3C[C@H]43)C2)C1` (atropisomer, axis not shown; (P)) [Example 13-87, (P)-(6aR,7aS)-2-(2-((2E)-4-(dimethylamino)-2-butenoyl)-2,6-diazaspiro[3.4]octan-6-yl)-4-(3-hydroxy-1-naphthalenyl)-6,6a,7,7a-tetrahydro-5H-cyclopropa[h]quinoline-3-carbonitrile], the pIC50 is 6.89. On the same count and under the same terms, for `C=CC(=O)N1CC2(CCN(c3nc4c(c(-c5scnc5C)c3C#N)CCC(c3ccnn3C)C4)C2)C1` [Example 13-27, (7S)-7-(1-methyl-1H-pyrazol-5-yl)-4-(4-methyl-1,3-thiazol-5-yl)-2-(2-(2-propenoyl)-2,6-diazaspiro[3.4]octan-6-yl)-5,6,7,8-tetrahydro-3-quinolinecarbonitrile|(7R)-7-(1-methyl-1H-pyrazol-5-yl)-4-(4-methyl-1,3-thiazol-5-yl)-2-(2-(2-propenoyl)-2,6-diazaspiro[3.4]octan-6-yl)-5,6,7,8-tetrahydro-3-quinolinecarbonitrile] the value was 6.64; for `C=CC(=O)N1CC2(CCN(c3nc4c(c(-c5c(C)ccc6cnn(C)c56)c3C#N)C[C@H]3C[C@@H]4C3)C2)C1` (single isomer, unassigned) [Example 13-117], 4.80; for `C=CC(=O)N1CC2(CCN(c3nc4c(c(-c5c(C)ccc6cnn(C)c56)c3C#N)CCC4(C)C)C2)C1` (single isomer, unassigned) [Example 13-103, (M)-2-(2-acryloyl-2,6-diazaspiro[3.4]octan-6-yl)-4-(1,6-dimethyl-1H-indazol-7-yl)-7,7-dimethyl-6,7-dihydro-5H-cyclopenta[b]pyridine-3-carbonitrile], 6.55.

Staying with this experiment, now noted: read-out: Avg 2 h Coupled exchange IC50, 2 h compound pre-incubation, SOS-mediated nucleotide exchange.
Turning to “(M)-1-(6-(4-(5-chloro-1-methyl-1H-indazol-7-yl)-3,7,7-trimethyl-7,8-dihydro-5H-pyrano[4,3-b]pyridin-2-yl)-2,6-diazaspiro[3.4]octan-2-yl)-2-propen-1-one [Example 2-33]”, the pIC50 was 4.76.

Values taken from patent US20240059703A1 (AMGEN INC., priority 2021, published 2024).
